This is an account of results in the NIST ThermoML archive (doi:10.1016/j.jct.2008.12.022).

For the series the following is noted: 101.33 kPa, Liquid; for viscosity: Capillary tube (Ostwald / Ubbelohde) method; for mass density: Pycnometric method.

± gives the expanded uncertainty stated by the source.

A word on the viscosity: it is the internal friction of a fluid under shear. The term mass density denotes the mass of a sample divided by its volume. For the compound `CC(O)CO` (stereo not given) [1,2-propanediol], the viscosity is listed as 32.4 ± 0.73 mPa·s (303.15 K); 19.12 ± 0.45 mPa·s (313.15 K); 12.1 ± 0.28 mPa·s (323.15 K); 8.19 ± 0.18 mPa·s (333.15 K); 5.704 ± 0.13 mPa·s (343.15 K). Further, the mass density reads like this: (303.15 K) 1029 ± 1 kg/m3; (313.15 K) 1021 ± 1 kg/m3; (323.15 K) 1014 ± 1 kg/m3; (333.15 K) 1006 ± 1 kg/m3; (343.15 K) 999 ± 1 kg/m3.

With `OCCOCCOCCO` [triethylene glycol], the viscosity (303.15 K) is on record as 29.27 ± 0.7 mPa·s; the viscosity (313.15 K) worked out at 18.96 ± 0.46 mPa·s; the viscosity (323.15 K) worked out at 12.96 ± 0.31 mPa·s; the viscosity (333.15 K) came to 9.288 ± 0.22 mPa·s; the viscosity (343.15 K) came out at 6.906 ± 0.17 mPa·s. For the same compound, the mass density (303.15 K) is on record as 1116 ± 2 kg/m3; the mass density (313.15 K) worked out at 1109 ± 2 kg/m3; the mass density (323.15 K) is 1101 ± 2 kg/m3; the mass density (333.15 K) was 1093 ± 2 kg/m3; the mass density (343.15 K) was found to be 1086 ± 2 kg/m3.
